We go through two compounds from patent publication US20170013861A1, “BIOLOGICAL FORMULATION FOR COMPLEMENTING AN ANIMAL FEED, PROCESS FOR OBTAINING A BIOLOGICAL FORMULATION FOR AN ANIMAL FEED AND AN ANIMAL FEED” (PHB INDUSRIAL S.A., priority 2014, published 2017).

Data set [1] has as its system broiler chickens. Put plainly: Feed complementation for broiler chickens, initial growing cycle, 1 to 21 days (Example 5). Type of data set: in vivo. As to conditions: 0 to 21 days. The source says:
For this study it was used 336 chickens, males of Cobb lineage 500, received with one day of life. The chickens were housed in 28 cages, with 12 chickens being in each experimental unit. These chickens were submitted to 7 different treatments, each with 4 repetitions, distributed randomly in 7 blocks of 4 experimental units, with two daily observations being made, in order to evaluate the general conditions of the batch, such as temperature, illumination, water, feed and conditions of the bed of each one of the boxes.
The treatments of each batch of chickens were based on a pattern feed. Using this basal feed, the different treatments were developed as follows:
The quantity of formulation applied in the feeds presented as reference the used quantity of butyrates/feed ton, that is, within the interval from 200 g/feed ton to 1.000 g/feed ton.
The results obtained with these different treatments are related in the Table—Average weight, average weight gain, average feed consumption, alimentary conversion and mortality during the experimental period from 0 to 21 days: […]

The subject of data set [2] is broiler chickens. As to the kind of experiment: Feed complementation for broiler chickens, whole productive cycle, 1 to 42 days (Example 6). Type of data set: in vivo. The conditions noted are these: for Alimentary conversion / Average weight gain (GPM)/chicken / Feed consumption / GPD / % death: 0 to 42 days; for % death: broiler chickens; for Average weight (PM)/chicken, PM2: final weight, 42 days. The text has this: For this study there were used 2.352 chickens, males of the Cobb lineage 500, received with one day of life. The chickens were housed in 42 boxes, with 56 chickens being in each experimental unit. These chickens were submitted to different treatments, distributed randomly in 06 blocks of 07 experimental units, with two daily observations being made, in order to evaluate the general conditions of the batch, such as temperature, illumination, water, feed and conditions of the bed of each one of the boxes.
The treatments of each chicken batch were based on a pattern feed, with the following composition:
From this basal feed, the different treatments were developed as follows:
The results obtained with these different treatments are shown in the Table—Average weight, average weight gain, average feed consumption, alimentary conversion and mortality during the experimental period from 0 to 42 days: […]

Turning to `CCCC(=O)[O-].[Na+]` [Treatment T2, sodium butyrate], the Alimentary conversion in the data set with broiler chickens [1] turned out to be 1.371. In the data set on broiler chickens [1] (broiler chickens), the Accumulated mortality % stood at 10.41%. Moreover, in the data set on broiler chickens [2], the Alimentary conversion is given as 1.789, the “Average weight gain (GPM)/chicken” value came to 2.709 abc kg, the Feed consumption was 5.058 kg and the GPD was determined as 65.5 a g/day. For the same compound, in the data set with broiler chickens [2], the “% death” value was 6.47% and the “Average weight (PM)/chicken, PM2” value was determined as 2.753 abc kg.
Turning to “calcium butyrate [T3 - Ca, butyrate 45%]”, in the data set with broiler chickens [2], the Alimentary conversion worked out at 1.874, the “Average weight gain (GPM)/chicken” value was 2.655 bc kg, the Feed consumption stood at 5.116 kg and the GPD is 64.3 b g/day. Moreover, in the data set with broiler chickens [2], the “% death” value amounted to 4.91% and the “Average weight (PM)/chicken, PM2” value was determined as 2.699 c kg.
